Assays:
[1] = tested on: human pancreatic cancer cell MiaPaca 2 xenograft; test: Tumor inhibition test on MiaPaca 2 xenograft model; assay type: in vivo, Balb/c nude mice; settings: 6 mg/kg QD × 3 w, intragastric
Method: Balb/c nude mice were used as test animals. In vivo pharmacodynamic test was carried out on human pancreatic cancer cell MiaPaca 2 xenograft (CDX) model to evaluate the anti-tumor effect of the test compounds.
MiaPaca 2 cells were taken from the cell bank and thawed. The cells were added to the DMEM medium (containing 10% FBS, 1% Glu and 1% P/S), and incubated in the CO2 incubator (the temperature of the incubator was 37° C., and the CO2 concentration was 5%). After the cells covered 80-90% of the bottom of the culture flask, the cells were passaged. After passage, the cells continued to be incubated in the CO2 incubator. The process was repeated until the number of cells met the inoculation requirement of the in vivo pharmacodynamic test. The cells in logarithmic growth phase were collected, and counted by the automatic cell counter. According to the counting results, the cells were resuspended with PBS and Matrigel (volume ratio: 1:1) to obtain a cell suspension (density: 8×10^7/ml), which was placed in an ice box for later use.
Female Balb/c nude mice (6-8 weeks old, body weight: about 18-22 grams) were used as test animals. The mice were maintained in an environment free of special pathogens and in a single ventilated cage (five mice per cage). All cages, bedding and water were disinfected before use. All animals had free access to standard certified commercial laboratory animal diets. The nude mice were marked with a disposable universal ear tag for rats and mice before the test. The skin of the inoculation site was disinfected with 75% medical alcohol before the inoculation. Each mouse was inoculated with 0.1 ml of MiaPaca 2 tumor cells (containing 8*10^6 cells) subcutaneously on the right back. When the average tumor volume reached 100 to 200 mm^3, administration was carried out. The test compounds were administered intragastrically daily. The tumor volume (mm^3) was measured with the vernier caliper twice a week. The tumor volume calculation formula: V=0.5*D*d*d, wherein D and d represent the long diameter and short diameter of the tumor, respectively. The anti-tumor efficacy was determined by dividing the average tumor increase volume of the compound-treated animals by the average tumor increase volume of the untreated animals. Tumor growth inhibition rate calculation formula: […]
All animals were euthanized after the experiment.

hERG potassium channel = target: T1, hERG potassium channel (Homo sapiens, UniProt Q12809); test: Inhibitory activity on hERG potassium channel (Qpatch, CHO-hERG cells); assay type: cell-based; settings: six concentrations up to 40 μM, read-out: hERG (inhibitory effect on hERG current)
T1 construct: expressed in transfected cells; host or cells: CHO-hERG cells
T1 sequence (Q12809 whole entry): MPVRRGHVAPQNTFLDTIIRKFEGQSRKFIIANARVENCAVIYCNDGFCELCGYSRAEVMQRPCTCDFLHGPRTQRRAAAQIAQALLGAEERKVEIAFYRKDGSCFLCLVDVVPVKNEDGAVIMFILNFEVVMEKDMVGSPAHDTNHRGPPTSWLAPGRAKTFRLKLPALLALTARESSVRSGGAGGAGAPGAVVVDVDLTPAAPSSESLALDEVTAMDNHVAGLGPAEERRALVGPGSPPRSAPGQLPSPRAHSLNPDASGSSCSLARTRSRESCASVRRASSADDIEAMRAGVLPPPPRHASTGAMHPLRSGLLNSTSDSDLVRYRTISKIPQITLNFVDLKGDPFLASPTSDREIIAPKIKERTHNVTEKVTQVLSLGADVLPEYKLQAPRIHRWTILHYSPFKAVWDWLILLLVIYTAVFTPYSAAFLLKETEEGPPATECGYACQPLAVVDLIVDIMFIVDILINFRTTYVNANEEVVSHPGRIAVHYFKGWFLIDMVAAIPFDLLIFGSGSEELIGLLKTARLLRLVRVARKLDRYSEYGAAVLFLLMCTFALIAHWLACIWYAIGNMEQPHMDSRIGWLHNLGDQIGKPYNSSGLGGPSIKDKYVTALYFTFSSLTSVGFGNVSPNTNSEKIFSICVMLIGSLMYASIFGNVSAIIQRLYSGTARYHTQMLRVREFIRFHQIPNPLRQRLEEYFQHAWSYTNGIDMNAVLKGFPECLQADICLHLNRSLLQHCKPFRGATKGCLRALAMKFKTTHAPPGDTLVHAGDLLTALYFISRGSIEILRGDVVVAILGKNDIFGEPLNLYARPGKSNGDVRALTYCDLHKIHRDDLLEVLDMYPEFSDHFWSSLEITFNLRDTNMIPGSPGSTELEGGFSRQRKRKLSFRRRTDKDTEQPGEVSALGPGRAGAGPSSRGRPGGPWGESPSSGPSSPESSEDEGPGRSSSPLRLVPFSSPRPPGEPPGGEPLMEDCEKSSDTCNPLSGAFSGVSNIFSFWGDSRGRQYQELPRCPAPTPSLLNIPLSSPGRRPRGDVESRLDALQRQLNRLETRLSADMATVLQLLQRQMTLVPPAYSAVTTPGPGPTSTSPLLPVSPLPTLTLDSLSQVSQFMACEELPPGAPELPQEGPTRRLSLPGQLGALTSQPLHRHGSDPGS
Method: 8.1.1 CHO-hERG cells were cultured in a 175 cm^2 culture flask. When the cells were grown to a density of 60 to 80%, the culture solution was removed, and the cells were washed once with 7 mL of PBS, and then 3 mL of Detachin was added for digestion of the cells.
8.1.2 After the digestion was complete, the cells were neutralized by adding 7 mL of the culture solution and then centrifuged. The supernatant was removed, and then 5 mL of the culture solution was added for resuspension to ensure a cell density of 2-5×10^6 cells/mL.
The single-cell high-impedance sealing and whole-cell pattern formation processes were both completed automatically by the Qpatch instrument. After the whole-cell recording pattern was obtained, the cells were clamped at −80 millivolts. A pre-voltage of −50 millivolts was applied for 50 milliseconds prior to the application of a depolarizing stimulus of +40 millivolts for 5 seconds, and then the cells were repolarized to −50 millivolts and maintained for 5 seconds, and then returned back to −80 millivolts. This voltage stimulation was applied every 15 seconds, and data were recorded for 2 minutes, and thereafter the extracellular fluid was administered and data were recorded for 5 minutes, and then the administration process was started. The compound was administered from the lowest test concentration, and 2.5 minutes were given for each test concentration. After all the concentrations of the compound were administered, […] Cisapride as a positive control compound was administered. At least three cells (n≥3) were tested for each concentration.
8.4.1 20 mM compound mother solution was diluted with the extracellular fluid. 5 μL of the 20 mM compound mother solution was diluted 500 times to 40 μM by adding 2495 μL of the extracellular fluid, and then 3-fold serial dilutions were performed sequentially in the extracellular fluid containing 0.2% DMSO to obtain a final concentration to be tested.
8.4.2 The highest test concentration was 40 μM, and there were six concentrations in total, i.e., 40, 13.33, 4.44, 1.48, 0.49, and […], respectively.
The experimental data were analyzed by XLFit software.

[2] = target: T2, SHP-2 full-length protein (Homo sapiens, UniProt Q06124); test: Inhibition of SHP-2 kinase activity (Homogeneous Full Length SHP-2 Assay Kit); assay type: biochemical; settings: relative IC50, full-length SHP-2 with activating peptide
T2 construct: purchased BPS Bioscience 79330
T2 sequence (Q06124 1-593): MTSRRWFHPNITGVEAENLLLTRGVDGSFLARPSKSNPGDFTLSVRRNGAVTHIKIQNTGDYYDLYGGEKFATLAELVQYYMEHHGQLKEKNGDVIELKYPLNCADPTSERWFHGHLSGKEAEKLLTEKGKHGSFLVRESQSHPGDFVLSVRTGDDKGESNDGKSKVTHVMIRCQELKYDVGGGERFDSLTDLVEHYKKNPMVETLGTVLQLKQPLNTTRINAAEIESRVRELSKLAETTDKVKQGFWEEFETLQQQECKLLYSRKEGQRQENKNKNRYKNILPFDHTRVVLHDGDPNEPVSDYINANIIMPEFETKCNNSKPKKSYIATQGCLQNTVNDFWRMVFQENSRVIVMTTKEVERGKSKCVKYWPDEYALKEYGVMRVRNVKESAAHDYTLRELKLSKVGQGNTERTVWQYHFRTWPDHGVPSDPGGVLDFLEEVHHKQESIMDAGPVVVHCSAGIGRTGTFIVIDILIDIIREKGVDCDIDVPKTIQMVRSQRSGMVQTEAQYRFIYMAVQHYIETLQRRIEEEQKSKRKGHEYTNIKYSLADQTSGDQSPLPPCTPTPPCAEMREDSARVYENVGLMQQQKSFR
Method: The objective of this test is to determine the inhibitory effect of the compounds on SHP-2 full-length protein allosteric activity.
Experimental method: Homogeneous Full Length SHP-2 Assay Kit (BPS Bioscience, #79330) was used to determine the in vitro SHP-2 activity. First, 18 μL of Master Mix was added to a 96-well low adsorption microplate (NUNC, #267342), i.e., the reaction buffer with a final concentration of 1× comprised 0.5 μM SHP-2 activating Peptide and 5 mM DTT. After centrifugation, 5 μL of test compound/DMSO was added to each well (the final DMSO content was 1%, V/V, the test compound was dissolved in DMSO to 1 mM, a three-fold serial dilution was carried out to obtain ten concentrations, the final concentration of the reaction system ranged from 1 μM to 0.05 nM). SHP-2 was diluted in the 1× reaction buffer to a final concentration of 0.06 nM, and the resulting solution was added to the reaction microplate (2 μL per well). Full activity control (compound only with DMSO) and full inhibition control (no SHP-2) were set up on the reaction plate. After centrifugation, the reaction mixture was incubated at room temperature for 60 minutes.
After completion of the incubation, 25 μL of Substrate solution, which comprised Substrate with a final concentration of 10 μM and 5 mM DTT, was added to each well. After centrifugation, the reaction mixture was incubated at room temperature for 30 minutes. After completion of the reaction, readings were measured on the Synergy H1 full-function microplate reader (BioTek) (excitation wavelength: 340 nm, emission wavelength: […], gain value: 75).
The IC50 value of the test compounds was calculated by fitting the percentage inhibition rate and data of ten concentrations to a four-parameter nonlinear logic formula with GraphPad prism.

NCI-H358 cells = test: Proliferation inhibition of NCI-H358 cells (CellTiter-Glo); assay type: cell-based; settings: Homo sapiens, NCI-H358, 72 h; 3 days incubation
Method: Experimental method: 3000 cells (90 μL of cell suspension) were inoculated to each well of a 96-well cell culture plate (Corning, #3610). The culture plate was incubated in an incubator overnight (37° C., 5% CO2). On the next day, 10 μL of gradient dilutions of the test compound solution (the final DMSO content was 0.2%, V/V, the final concentration of the reaction system ranged from 10 μM to 4.5 nM) was added to each well of the culture plate. At the same time, full activity control (compound only with DMSO) and full inhibition control (no cells) were set up on the reaction plate. The culture plate was incubated in the incubator for 3 days (37° C., 5% CO2).
After completion of the incubation, 50 μL of CellTiter-Glo reagent was added to each well of the cell culture plate, which was left to stand at room temperature for 10 minutes. The chemiluminescence signal value was measured in the Synergy H1 full-function microplate reader (BioTek). […] The IC50 value of the test compounds was calculated by fitting the percentage inhibition rate and data of eight concentrations to a four-parameter nonlinear logic formula with GraphPad prism.
The IC50 value was calculated by fitting the data of different concentrations and corresponding percentage inhibition rates to a four-parameter nonlinear logic formula with GraphPad prism.

[3] = Pharmacokinetics assay in rats, oral administration; assay type: in vivo; settings: rat; male SD rats, oral 5 mg/kg, plasma
Method: SD rats were used as test animals.
(§1) 5 g of hydroxyethyl cellulose (HEC, CMC-Na, viscosity: 800-1200 Cps) was dissolved in 1000 mL of purified water, and 10 g of Tween80 was added. The solution was mixed well to form a clear solution.
The solution was shaked well and subjected to ultrasound for 15 minutes to obtain a colorless and clear solution with a concentration of 0.5 mg/mL.
After an overnight fast, male SD rats (3 rats per group) were administrated orally with the test compounds at an administration dose of 5 mg/kg and an administration volume of 10 mL/kg.
0.2 mL of blood was taken from jugular vein before administration and at 0.5 hour, 1.0 hour, 2.0 hours, 4.0 hours, 6.0 hours, 8.0 hours and 24.0 hours after administration. The blood samples were stored in EDTA-2K tubes, and centrifuged for 6 minutes at 6000 rpm, at 4° C. to separate the blood plasma. The plasma samples were stored at −80° C. The rats were fed four hours after administration.

[4] = Pharmacokinetics assay in mice, oral administration; assay type: in vivo; settings: mouse; male Balb/c mice, oral 5 mg/kg, plasma
Method: Balb/c mice were used as test animals.
as §1, with “solution. […] The solution was subjected to ultrasound for 10 minutes to obtain a colorless and clear solution with a concentration of 0.5 mg/mL.” for “solution.”
After an overnight fast, male Balb/c mice were administrated orally with the test compounds at an administration dose of 5 mg/kg and an administration volume of 10 mL/kg.
Blood was taken before administration and at 0.25 hour, 0.5 hour, 1 hour, 2 hours, 4 hours, 6 hours, 8 hours and 24 hours after administration. The blood samples were stored in EDTA-2K tubes, and centrifuged for 6 minutes at 6000 rpm, at 4° C. to separate the blood plasma. The plasma samples were stored at −80° C. The mice were fed four hours after administration.

Compound | Tumor volume (Mean ± SD) Day 0 [1] | TGI Day 21 [1] [%] | Tumor volume (Mean ± SD) Day 21 [1] [mm^3] | ΔT/ΔC Day 21 [1] [%] | IC50 (hERG potassium channel) [nM] | IC50 [2] [nM] | IC50 (NCI-H358 cells) [nM] | AUC(0-inf) [3] [ng·h/mL] | Cmax [3] [ng/mL] | MRT [3] [h] | Tmax [3] [h] | half-life [3] [h] | AUC(0-inf) [4] [ng·h/mL] | Cmax [4] [ng/mL] | MRT [4] [h] | Tmax [4] [h] | half-life [4] [h]
Nc1nc(N2CCC3(CC=C(C4CC4)[C@H]3N)CC2)cnc1Sc1ccnc(N)c1Cl [Example 143, (S)-8-(6-amino-5-((2-amino-3-chloropyridin-4-yl)thio)pyrazin-2-yl)-2-cyclopropyl-8-azaspiro[4.5]dec-2-en-1-amine] | 166 ± 27 (168 ± 32) mm^3 | 95.64 | 196 ± 62 | 4.36 | 6170 | 3.8 | 23.3 |  |  |  |  |  |  |  |  |  | 
Nc1nc(N2CCC3(CC2)Cc2ncccc2[C@H]3N)c(F)nc1Sc1ccnc(N)c1Cl [Example 180, (S)-1′-(6-Amino-5-((2-amino-3-chloropyridin-4-yl)thio)-3-fluoropyrazin-2-yl)-5,7-dihydrospiro[cyclopenta[b]pyridine-6,4′-piperidin]-5-amine] |  |  |  |  |  | 9.29 | 79.9 | 6250 | 666 | 5.67 | 1 | 4.12 | 5980 | 996 | 5.15 | 0.5 | 3.92
Cc1nc(Sc2ccnc(N)c2Cl)c(N)nc1N1CCC2(CC1)Cc1ccccc1[C@H]2N [Example 96, (S)-1′-(6-amino-5-((2-amino-3-chloropyridin-4-yl)thio)-3-methylpyrazin-2-yl)-1,3-dihydrospiro[indene-2,4′-piperidin]-1-amine] | 170 ± 28 (171 ± 25) mm^3 | 97.76 | 183 ± 70 | 2.24 | 5240 | 9.28 | 13.4 |  |  |  |  |  |  |  |  |  | 

Reference: patent US20210355105A1, “REGULATOR OF NITROGEN-CONTAINING HETEROAROMATIC DERIVATIVES, PREPARATION METHOD THEREFOR AND USE THEREOF” (Jiangsu Hansoh Pharmaceutical Group Co., Ltd., priority 2018, published 2021)
